From ChEMBL document CHEMBL1147368, “Constituents of Fevillea cordifolia: New Norcucurbitacin and Cucurbitacin Glycosides” (1993) come the findings set out here.

Type in all cases: functional
The test system of test [1] is Rattus norvegicus. Briefly: Antiinflammatory activity in rat assessed as inhibition of carrageenan-induced paw edema at 100 mg/kg, po. On the technique in general: Carrageenan injected into the paw causes an acute inflammation.
The subject of test [2] is Rattus norvegicus. The test can be described thus: Antiinflammatory activity in rat assessed as inhibition of carrageenan-induced paw edema at 0.125 mg/kg, po.
Test [3] relates to Rattus norvegicus. Briefly: Antiinflammatory activity in rat assessed as inhibition of carrageenan-induced paw edema at 2 mg/kg, po.

As usually defined, the inhibition in vivo is how much of the control response was suppressed. `CC(=O)Oc1ccccc1C(=O)O` [ASPIRIN]: the inhibition in vivo at 100 mg/kg with Rattus norvegicus [1] turned out to be 44%.
In the case of `C[C@H]1C[C@H]2[C@@H]3CCC4=CC(=O)C=C[C@]4(C)[C@@]3(F)[C@@H](O)C[C@]2(C)[C@@]1(O)C(=O)CO` [BETAMETHASONE], in the test with Rattus norvegicus [2], the inhibition in vivo at 0.125 mg/kg was 63%.
For `COc1ccc2c(c1)c(CC(=O)O)c(C)n2C(=O)c1ccc(Cl)cc1` [INDOMETHACIN], the inhibition in vivo at 2 mg/kg in the test on Rattus norvegicus [3] came out at 47%.
